Laboratory results taken from article PMC10702441 (2023).

Experiments:
Experiment in all cases: ITC
[1] = system: Aca domain I split construct (dom I; 28-mer + 22-mer) (RNA, riboswitch) GGGCGCAACAUCCCCGCCGGUUGGGCGC/GCGCAGUGAACCGGCUGCGUCC; details: 100 mM NaCl, 20 mM MgCl2, 0.10 M Na-HEPES pH 7.0, 10 °C, 1:1 model, apparent
[2] = system: Aai full-length NAD+-I (nadA) riboswitch, 100-mer (RNA, riboswitch) GGCUGCAACAUCCCCGUGGGUUGGACGGCGAAAGCCGUAGCGAAUCCACUGCAGCCUGUAUGGCUUUCAACAUCCCCGUCCGCGAAAGCGGACUGAAGGC
[3] = system: Aca domain II split construct (dom II; 28-mer + 20-mer) (RNA, riboswitch) GCUUUCAACAUCCCCGUCCCGGGCGGAG/CUCCGCAGUGGACUGAAGGC; details: 100 mM NaCl, 20 mM MgCl2; 0.10 M Na-HEPES pH 7.0, 10 °C; ligand in syringe 0.40–0.63 mM
[4] = 100 mM NaCl, 20 mM MgCl2, 0.10 M Na-HEPES pH 7.0, 10 °C, 1:1 model, apparent

Compound: NC(=O)c1ncn([C@@H]2O[C@H](COP(=O)(O)OP(=O)(O)OC[C@H]3O[C@@H](n4cnc5c(N)ncnc54)[C@H](O)[C@@H]3O)[C@@H](O)[C@H]2O)n1
- KD ([1]; error printed ± 7.1): 21.9 ± 8.4 µM
- KD [2, 4]: 30.2 ± 1.2 µM

Compound: NC(=O)C1=CN([C@@H]2O[C@H](COP(=O)(O)OP(=O)(O)OC[C@H]3O[C@@H](n4cnc5c(N)ncnc54)[C@H](O)[C@@H]3O)[C@@H](O)[C@H]2O)C=CC1
- KD [1]: 55.5 ± 3.6 µM
- binding [3]: no
- KD [2, 4]: 59.7 ± 2.2 µM

Compound: Nc1ncnc2c1ncn2[C@@H]1O[C@H](COP(=O)(O)OP(=O)(O)OP(=O)(O)O)[C@@H](O)[C@H]1O
- KD [2, 4]: 11.0 ± 3.5 µM

Compound: Nc1ncnc2c1ncn2[C@@H]1O[C@H](COP(=O)(O)OP(=O)(O)O)[C@@H](O)[C@H]1O
- KD [1]: 11.1 ± 0.6 µM
- KD [2, 4]: 9.7 ± 1.1 µM

Compound: NC(=O)c1ccc[n+]([C@@H]2O[C@H](COP(=O)(O)OP(=O)(O)OC[C@H]3O[C@@H](n4cnc5c(N)ncnc54)[C@H](O)[C@@H]3O)[C@@H](O)[C@H]2O)c1
- KD [1]: 24.6 ± 8.4 µM
- binding [3]: no
- KD [2, 4]: 31.5 ± 1.5 µM
- KD ([2]; K+ (KCl replacing NaCl), KCl-containing ITC buffer, 10 °C, no significant change from Na+): 18.2 ± 2.1 µM
